Results reported in patent US20220402862A1 (Intellia Therapeutics, Inc., priority 2019, published 2022).

Assays:
Transthyretin (TTR) = experiment: Serum TTR ELISA in mice after LNP dosing; assay type: in vivo, CD-1 female mice
Method in brief: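 Female CD-1 mice, 6–10 weeks, given LNPs by tail-vein injection (~10 mL/kg), 0.1 mg/kg unless noted; serum taken at day 6 or 7 by cardiac puncture. Total mouse TTR by ELISA on sera diluted 10,000-fold (0.1 mg/kg) or 10,000- and 2,500-fold (0.3 mg/kg).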

[1] = RNA encapsulation efficiency of LNPs (Ribogreen fluorescence assay); assay type: physicochemical; conditions: LNP
Method in brief: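 LNPs were diluted in 1× TE with 0.2% Triton X-100 (total RNA) or without it (free RNA), stained with RiboGreen for ~10 min at room temperature in the dark, and read at Ex 488/Em 525 nm against standard curves of the starting RNA. Encapsulation efficiency = (Total − Free)/Total.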

[2] = pKa measurement of unformulated amine lipid (fluorescence, method of Jayaraman et al.); assay type: physicochemical; conditions: 100 μM in 0.1 M phosphate buffer, pH 2.0-12.0
Protocol: The pKa of each amine lipid was determined according to the method in Jayaraman, et al. (Angewandte Chemie, 2012) with the following adaptations. […] Lipid was diluted to 100 μM in 0.1 M phosphate buffer (Boston Bioproducts) where the pH ranged from 2.0-12.0. Fluorescence intensity was measured using excitation and emission wavelengths of 321 nm and 448 nm.

mouse TTR gene = experiment: In vivo editing in mouse liver, sgRNA targeting TTR (G282 or G502), % indel by NGS; set-up: species or system CD-1 female mice
Protocol: CD-1 female mice ranging from 6-10 weeks of age were used in each study. Animals were weighed and grouped according to body weight for preparing dosing solutions based on group average weight. LNPs were dosed via the lateral tail vein in a volume of 0.2 mL per animal (approximately 10 mL per kilogram body weight). The animals were periodically observed for adverse effects for at least 24 hours post dose. For studies measuring in vivo editing in liver, CD-1 female mice were dosed at 0.1 mg/kg unless otherwise noted. Animals were euthanized at 6 or 7 days by ex sanguination via cardiac puncture under isoflurane anesthesia. Liver tissue was collected from each animal for DNA extraction and analysis. Blood was collected into serum separator tubes or into tubes containing buffered sodium citrate for plasma as described herein. Cohorts of mice were measured for editing by Next-Generation Sequencing (NGS).
In brief, to quantitatively determine the efficiency of editing at the target location in the genome, genomic DNA was isolated and deep sequencing was utilized to identify the presence of insertions and deletions introduced by gene editing.
PCR primers were designed around the target site (e.g., within B2M), and the genomic area of interest was amplified. Additional PCR was performed according to the manufacturer's protocols (Illumina) to add the necessary chemistry for sequencing. The amplicons were sequenced on an Illumina MiSeq instrument. The reads were aligned to the mouse or rat reference genome (e.g., GRCm38) after eliminating those having low quality scores. The resulting files containing the reads were mapped to the reference genome (BAM files), where reads that overlapped the target region of interest were selected and the number of wild type reads versus the number of reads which contain an insertion, substitution, or deletion was calculated.
The editing percentage (e.g., the “indel efficiency” or “percent indels”) was defined as the total number of sequence reads with insertions or deletions over the total number of sequence reads, including wild type.
We assessed in vivo editing efficiency for materials delivered with formulations including various amine lipid compounds. Editing was measured using either G282 (SEQ ID No: 1) which targets the mouse TTR gene or G650 (SEQ ID No. 2) which targets the mouse B2M gene. Lipids described above were assessed for efficacy through in vivo editing experiments. LNPs were formulated at a 1:1 or 1:1.3 w/w ratio of sgRNA to Cas9 mRNA, and at an N/P ratio of about 6. Molar concentrations of lipids in the lipid component of the LNPs are used at mol % amine lipid/DSPC/cholesterol/PEG-2k-DMG of 50/9/38/3. The final LNPs were characterized to determine the encapsulation efficiency, polydispersity index, and average particle size according to the analytical methods provided above. Analysis of average particle size, polydispersity (PDI), total RNA content and encapsulation efficiency of RNA are shown in Table 2.
To assess whether the editing was dose responsive, experiments were performed in vivo at various LNP dose levels. Cas9 mRNA of Example 120 was formulated as LNPs with an sgRNA targeting TTR (G282, SEQ ID NO: 1; or G502, SEQ ID NO: 4).
We assessed in vivo delivery by measuring editing efficiency for materials delivered with formulations that included various amine lipid compounds. Cas9 mRNA (SEQ ID NO: 6) was formulated as LNPs with an sgRNA targetting the TTR mouse gene (SEQ ID NO: 4). LNPs were formulated at a 1:2 w/w ratio of sgRNA to Cas9 mRNA, and at an N/P ratio of about 6. Molar concentrations of lipids in the lipid component of the LNPs are used at mol % amine lipid/DSPC/cholesterol/PEG-2k-DMG of 50/9/38/3. The final LNPs compositions were characterized and analyzed as described in Example 120. Analysis of average particle size, polydispersity (PDI), total RNA content and encapsulation efficiency of RNA are shown in Table 6.

[3] = Dynamic light scattering of LNPs: Z-average diameter, number average diameter, PDI; assay type: physicochemical; conditions: LNP
Method in brief: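 LNP samples were diluted in PBS and measured by DLS to give intensity-based Z-average diameter, number average diameter and polydispersity index. PDI describes size spread around the mean, with zero meaning a uniform population.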

[4] = mouse serum TTR relative to TSS control, guide G502, i.v. 0.1 mg/kg
[5] = mouse serum, guide G502, i.v. 0.1 mg/kg
[6] = sg:mRNA 1:2, N/P about 6, 50/9/38/3, TTR sgRNA (SEQ ID NO: 4), Table 6, Experiments 106-107
[7] = guide G502, i.v. 0.1 mg/kg, sgRNA:Cas9 mRNA 1:2 w/w, experiments 106, 107
[8] = sg:mRNA 1:2, N/P about 6, 50/9/38/3, Table 6, Experiments 106-107
[9] = sg:mRNA 1:2, N/P 6.0, 50/9/38/3, Table 4, Experiment 105
[10] = sg:mRNA 1:1, N/P about 6, 50/9/38/3, Table 2, Experiments 2-20

## CCCCC/C=C\C/C=C\CCCCCCCC(=O)OCC(COC(=O)CCC(OCCCCCCCC)OCCCCCCCC)COC(=O)OCCCN1CCCCC1 (centres unmarked) [Compound 102, 3-((4,4-bis(octyloxy)butanoyl)oxy)-2-((((3-(piperidin-1-yl)propoxy)carbonyl)oxy)methyl)propyl (9Z,12Z)-octadeca-9,12-dienoate]
Transthyretin (TTR); [4]
  Serum TTR % TSS: 62.3%
Transthyretin (TTR); [5]
  Serum TTR: 728.1 µg/mL
[1]; [6]
  % E: 98%
[2]
  pKa: 5.7
Mouse TTR gene; [7]
  Editing Mean % Indel: 19.6%
[3]; [8]
  Number mean (nm): 57 nm
  PDI: 0.02
  Z-avg (nm): 71 nm

## CCCCCCCCOC(CCC(=O)OCC(COC(=O)CCCCCCCCCCC(=O)OCCCCCCC)COC(=O)OCCCN(CC)CC)OCCCCCCCC (centres unmarked) [Compound 61, 1-(3-((4,4-bis(octyloxy)butanoyl)oxy)-2-((((3-(diethylamino)propoxy)carbonyl)oxy)methyl)propyl) 12-heptyl dodecanedioate]
Transthyretin (TTR); mouse, LNP i.v. 0.03 mg/kg, guide G502, Experiment 105
  Serum TTR: 711 µg/mL
Transthyretin (TTR); mouse, LNP i.v. 0.03 mg/kg, guide G502, Experiment 105, relative to TSS control
  Serum TTR % TSS: 65%
Transthyretin (TTR); mouse, LNP i.v. 0.1 mg/kg, guide G502, Experiment 105
  Serum TTR: 472 µg/mL
Transthyretin (TTR); mouse, LNP i.v. 0.1 mg/kg, guide G502, Experiment 105, relative to TSS control
  Serum TTR % TSS: 43%
[1]; sg:mRNA 1:1, N/P about 6, amine lipid/DSPC/cholesterol/PEG-2k-DMG 50/9/38/3, Table 2, Experiments 2-20
  Encapsulation (%): 97%
[1]; [9]
  % E: 98%
[2]
  pKa: 6.29
Mouse TTR gene; LNP i.v. 0.03 mg/kg, guide G502, Experiment 105
  Editing Mean % Indel: 7.78%
Mouse TTR gene; LNP i.v. 0.1 mg/kg, guide G502, Experiment 105
  Editing Mean % Indel: 36.06%
[3]; [10]
  Number mean (nm): 72 nm
  PDI: 0.018
  Z-avg (nm): 87.26 nm
[3]; [9]
  Number mean (nm): 79.73 nm
  PDI: 0.033
  Z-avg (nm): 99.25 nm

## CC/C=C\C/C=C\C/C=C\CCCCCCCC(=O)OCC(COC(=O)CCC(OCCCCCCCC)OCCCCCCCC)COC(=O)OCCCN(CC)CC (centres unmarked) [Compound 116, 3-((4,4-bis(octyloxy)butanoyl)oxy)-2-((((3-(diethylamino)propoxy)carbonyl)oxy)methyl)propyl (9Z,12Z,15Z)-octadeca-9,12,15-trienoate]
Transthyretin (TTR); [4]
  Serum TTR % TSS: 51.3%
Transthyretin (TTR); [5]
  Serum TTR: 567.09 µg/mL
[1]; [6]
  % E: 99%
[2]
  pKa: 6.04
Mouse TTR gene; [7]
  Editing Mean % Indel: 34.48%
[3]; [8]
  Number mean (nm): 74 nm
  PDI: 0
  Z-avg (nm): 90 nm

## CCCCCCCCCCCCCCCCCC(=O)OCC(COC(=O)CCC(OCCCCCCCC)OCCCCCCCC)COC(=O)OCCCN(CC)CC (centres unmarked) [Compound 114, 3-((4,4-bis(octyloxy)butanoyl)oxy)-2-((((3-(diethylamino)propoxy)carbonyl)oxy)methyl)propyl stearate]
Transthyretin (TTR); [4]
  Serum TTR % TSS: 88.4%
Transthyretin (TTR); [5]
  Serum TTR: 978.01 µg/mL
[1]; [6]
  % E: 96%
[2]
  pKa: 6.13
Mouse TTR gene; [7]
  Editing Mean % Indel: 18.04%
[3]; [8]
  Number mean (nm): 72 nm
  PDI: 0.02
  Z-avg (nm): 87 nm

## CCCCC/C=C\C/C=C\CCCCCCCC(=O)OCC(COC(=O)CCC(OCCCCCCCC)OCCCCCCCC)COC(=O)NCCN1CCCCCC1 (centres unmarked) [Compound 103, 3-(((2-(azepan-1-yl)ethyl)carbamoyl)oxy)-2-(((4,4-bis(octyloxy)butanoyl)oxy)methyl)propyl (9Z,12Z)-octadeca-9,12-dienoate]
Transthyretin (TTR); [4]
  Serum TTR % TSS: 89.3%
Transthyretin (TTR); [5]
  Serum TTR: 1043.8 µg/mL
[1]; [6]
  % E: 99%
[2]
  pKa: 7
Mouse TTR gene; [7]
  Editing Mean % Indel: 4.2%
[3]; [8]
  Number mean (nm): 50 nm
  PDI: 0.05
  Z-avg (nm): 65 nm

## CCCCC/C=C\C/C=C\CCCCCCCC(=O)OCC(COC(=O)CCC(OCCCCCCCC)OCCCCCCCC)COC(=O)NCCN1CCCC1 (centres unmarked) [Compound 100, 3-((4,4-bis(octyloxy)butanoyl)oxy)-2-((((2-(pyrrolidin-1-yl)ethyl)carbamoyl)oxy)methyl)propyl (9Z,12Z)-octadeca-9,12-dienoate]
Transthyretin (TTR); [4]
  Serum TTR % TSS: 81.3%
Transthyretin (TTR); [5]
  Serum TTR: 1017.4 µg/mL
[1]; [6]
  % E: 99%
[2]
  pKa: 7.2
Mouse TTR gene; [7]
  Editing Mean % Indel: 12%
[3]; [8]
  Number mean (nm): 70 nm
  PDI: 0.04
  Z-avg (nm): 89 nm

## CCCCC/C=C\C/C=C\CCCCCCCC(=O)OCC(COC(=O)CCC(OCCCCCCCC)OCCCCCCCC)COC(=O)NCCN1CCCCC1 (centres unmarked) [Compound 101, 3-((4,4-bis(octyloxy)butanoyl)oxy)-2-((((2-(piperidin-1-yl)ethyl)carbamoyl)oxy)methyl)propyl (9Z,12Z)-octadeca-9,12-dienoate]
Transthyretin (TTR); [4]
  Serum TTR % TSS: 56.1%
Transthyretin (TTR); [5]
  Serum TTR: 655.8 µg/mL
[1]; [6]
  % E: 99%
[2]
  pKa: 6.4
Mouse TTR gene; [7]
  Editing Mean % Indel: 25.9%
[3]; [8]
  Number mean (nm): 58 nm
  PDI: 0.04
  Z-avg (nm): 73 nm

## CCCCCCCC/C=C\CCCCCCCC(=O)OCC(COC(=O)CCC(OCCCCCCCC)OCCCCCCCC)COC(=O)OCCCN(CC)CC (centres unmarked) [Compound 115, 3-((4,4-bis(octyloxy)butanoyl)oxy)-2-((((3-(diethylamino)propoxy)carbonyl)oxy)methyl)propyl oleate]
Transthyretin (TTR); [4]
  Serum TTR % TSS: 73.8%
Transthyretin (TTR); [5]
  Serum TTR: 816.3 µg/mL
[1]; [6]
  % E: 97%
[2]
  pKa: 5.96
Mouse TTR gene; [7]
  Editing Mean % Indel: 19.68%
[3]; [8]
  Number mean (nm): 76 nm
  PDI: 0.01
  Z-avg (nm): 93 nm
